Results: patent US20210254000A1, “PROCESS FOR PRODUCING A T CELL COMPOSITION” (Juno Therapeutics, Inc., priority 2017, published 2021)

Tests used:
[1] = system: caspase 3; assay: Intracellular caspase 3 in thawed CAR-T cells prepared with inhibitor; type: cell-based, human; conditions: thawed CAR-T cells prepared with 1 μM Compound 63 vs DMSO; three donors
Protocol: Separate compositions of CD4+ and CD8+ cells were selected from isolated PBMCs from a leukapheresis sample from the same human donor by immunoaffinity based selection, and the selected cell compositions were cryofrozen. The separate compositions of CD4+ and CD8+ T cells were subsequently thawed and mixed at a ratio of 1:1 of viable CD4+ T cells to viable CD8+ T cells. In this study, the mixed CD4+ and CD8+ cell populations were incubated in the presence of Compound 63, PI103 or no inhibitor (DMSO vehicle control) beginning at the initiation of stimulation. In more detail, the mixed CD4+ and CD8+ T cell composition was stimulated (in the presence or absence of an inhibitor, as indicated) in the presence of paramagnetic polystyrene-coated beads with attached anti-CD3 and anti-CD28 antibodies for between 18 to 30 hours, and were then transduced with a lentiviral vector encoding an anti-CD19 CAR. The CAR contained an scFv antigen-binding domain specific for CD19 (derived from FMC63), a CD28 transmembrane region, a 4-1BB costimulatory signaling region, and a CD3-zeta derived intracellular signaling domain. The cells were then expanded in the presence of cytokines typically for approximately 6-7 days. […]
The cells were assessed by flow cytometry for levels of the cell surface markers and levels of pro-apoptotic marker, intracellular caspase 3.

[2] = system: anti-CD19 CAR-T cells; assay: Serial stimulation assay with irradiated K562-CD19 target cells; type: cell-based, human; conditions: four rounds of restimulation with K562-CD19 cells; relative to media only
Protocol: Separate compositions of CD4+ and CD8+ cells were isolated from three human donors, activated and transduced with a viral vector encoding an anti-CD19 CAR substantially as described in Example 2. After transduction, the CD4+ and CD8+ T cells derived from each donor were separately incubated for 8 days in the presence of a mTOR kinase inhibitor to expand T cells substantially as described in Example 2, except in the presence of 200 nM PI-103, 1 μM Compound 63, or with DMSO vehicle or media only controls. CD4+ and CD8+ T cells from each donor were then separately harvested, formulated, and cryofrozen. […] Functional activities of the generated anti-CD19 CAR-T cell compositions were assessed.
The ability of cells to expand ex vivo following repeated stimulations in some aspects can indicate capacity of CAR-T cells to persist (e.g., following initial activation) and/or is indicative of function in vivo (Zhao et al. (2015) Cancer Cell, 28:415-28). […] Every 3-4 days, T cells were harvested, counted, and restimulated with new target cells using the same culture conditions after resetting cell number to initial seeding density for each round. […] The population doublings (FIG. 7A) and area under the curves (AUC) as a function of population doublings over time relative to AUC of cells expanded with media only (FIG. 7B) were determined.

[3] = system: engineered CD8+ and CD4+ T cells; assay: T cell expansion of anti-CD19 CAR-transduced CD4+ and CD8+ T cells incubated with mTOR kinase inhibitor; type: cell-based; conditions: human
Protocol: Separate compositions of CD4+ and CD8+ cells were isolated from human leukapheresis samples by immunoaffinity-based enrichment and cryofrozen. The CD4+ and CD8+ cells of the compositions were subsequently thawed and activated by separately culturing the cells under stimulating conditions in the presence of anti-CD3/anti-CD28 magnetic beads and recombinant IL-2, IL-7 and/or IL-15 for approximately 20 hours. Cells were then transduced with a viral vector encoding an anti-CD19 chimeric antigen receptor (CAR). After transduction, the CD4+ and CD8+ cells were separately incubated in the presence of an mTOR kinase inhibitor, either Compound 155, Compound 63, or Compound 246, at various concentrations. For controls, cells were incubated with media only, DMSO vehicle, or with 200 nM PI-103. Incubation was carried out at 37° C. for approximately 8 days post-thaw with one media change, at which point the compounds were re-added to the culture media at the same concentration.
The percent of CD8+ and CD4+ T cells at the end of the process as compared to the amount of cells seeded for culture following the transduction is shown in FIG. 2. The cutoff for selecting a tolerated dose was set at 70% of the mean values of the media and DMSO controls.

CC(C)c1ccccc1-n1c(=O)[nH]c2c(C(N)=O)nc(-c3cccc(O)c3)nc21 [Compound 63, 2-(3-Hydroxyphenyl)-9-(2-isopropylphenyl)-8-oxo-8,9-dihydro-7H-purine-6-carboxamide]
levels of pro-apoptotic marker intracellular caspase 3 [1]: decreased levels
mean AUC of population doublings compared to T cells expanded with PI-103 or DMSO vehicle [2]: larger mean AUC
highest tolerated dose resulting in similar CD8 and CD4 T cell expansion as vehicle control [3]: 1 µM
